Read-outs that look alike come from different tables or passages of the source. Marks after values point to notes of the source that are not given here.
How the values were obtained:
[1] = PTX silicate hydrolysis rates by 1H NMR; assay type: physicochemical; details: for krel at C7 (hydrolysis rate relative to the slowest, 1d) / krel at C2′ (hydrolysis rate relative to the slowest, 1d): d6-acetone:D2O:TFA 90:9:1, room temperature; for krel at C7 (hydrolysis rate relative to the slowest, 1d): for 2a/2b rate of in situ generated 3a/3b to PTX; for krel at C2′ (hydrolysis rate relative to the slowest, 1d): 1d = 1.0, ± SD of three trials
Method: A known quantity of a PTX prodrug was dissolved in 900 μL of d6-acetone. To this homogenous solution, 100 μL of a 9:1 solution of D2O: trifluoroacetic acid (TFA) was added, and the solution was vigorously mixed. The ^1H NMR spectra was taken (16 transients) on a 500 MHz Varian instrument at multiple time points over the course of more than three half-lives. The study was conducted at room temperature (rt=22.5° C.±1.0° C.) Upon completion of the study, the 2′ and/or 7 methine resonances were integrated in a baseline-adjusted NMR spectrum using MestRec software. The relative integrations were used to determine the extent of hydrolysis. The data from three replications was plotted on a semi-log scale to determine the kobs of the prodrug that were then converted to the krel data as presented, defining the rate of the most slowly hydrolyzed prodrug (1d) as krel=1.0. Errors are defined as the standard deviation of the three trials.
^1H NMR spectroscopy was used to establish relative hydrolysis rates of compounds 1-3. The compounds were dissolved in a solution of d6-acetone, D2O, and trifluoroacetic acid (TFA) in a 90:9:1 ratio (v/v/v). Resonances of, e.g., H2′ in the reactant silicate vs. product carbinol were monitored.

MDA-MB-231 cells = experiment: MTT cytotoxicity of PTX silicate prodrugs; assay type: cell-based, human
Method: MDA-MB-231 and MDA-MB-231 Luciferase positive cells were maintained independently in MEM supplemented with 1% pen/strep and 10% FBS at 37° C. in a humidified incubator. MDA-MB-231 cells were obtained from the American Type Culture Collection. MDA-MB-231 Luc+ cells were obtained from CaliperLS (Hopkinton, Mass., USA). For MTT cytotoxicity studies, MDA-MB-231 cells were seeded at 8,000 cells/well in a 96 well plate in 100 μL MEM with 5% FBS. Paclitaxel, and paclitaxel silicate prodrug stock solutions of 10 mM were prepared in DMSO. Stock solutions were diluted to 2× concentration in MEM with 5% FBS, 100 μL volume, and pipetted into the 96 well plate. Concentration ranges were from 1-10,000 nM. After 48 hours, 30 μL of MTT working reagent was added to cells. Absorbance at 490 nm was monitored on a 96 well plate UV vis detector at 60 minutes. IC50 values were determined by nonlinear regression analysis of log concentration v. response data obtained from the MTT assay. The IC50 was interpolated from the resulting curves using Graphpad Prism v5.1 (Graphpad Software Inc. La Jolla Calif., USA).
Cytotoxicity of the PTX silicate prodrugs 1-3 was examined in the MDA-MB-231 human breast cancer cell line (Table 2).

[2] = system: Tumor cells (4T1, PANC-1 or MDA-MB-231); experiment: Cytotoxicity against tumor cells in vitro (MTS assay); assay type: cell-based; details: 72 hours, FIG. 2
Method: Tumor cells (4T1, PANC-1 or MDA-MB-231) were seeded in 96-well plates and allowed to attach. Cells were then treated with paclitaxel (solubilized in growth medium using ethanol), silicate prodrug (2a, solubilized in growth medium using ethanol), silicate prodrug nanoparticles (a 58:42 wt % mixture of the bis-triethyl silicate paclitaxel prodrug 2a and a 5K-10K PEG-PLGA BCP dispersed in growth medium) or copolymer-only (blank, no drug) nanoparticles for 72 hours. Cell viability was then measured using a standard MTS assay kit (Promega).

Orthotopic 4T1 tumors = experiment: 4T1 tumor growth in mice; assay type: in vivo, BALB/c mice
Method: Orthotopic 4T1 tumors were grown by injecting ˜1×10^6 tumor cells in the mammary fat pad of BALB/c mice. When the tumors were about 100 mm^3 in volume, the animals were injected with a single dose of paclitaxel dissolved in 1:1 mix of ethanol and cremophor (same formulation as Taxol®), silicate prodrug (2a) dissolved in 1:1 mix of ethanol and cremophor (same formulation as Taxol®), or silicate prodrug nanoparticles dispersed in buffered saline. Untreated animals or those treated with just cremophor/ethanol vehicle were used as controls. […] This study clearly indicates the benefit of formulating paclitaxel in the form of silicate prodrug nanoparticle formulation.

SMILES | krel at C7 (hydrolysis rate relative to the slowest, 1d) [1] | IC50 (MDA-MB-231 cells; Homo sapiens, MDA-MB-231, 48 h) | krel at C2′ (hydrolysis rate relative to the slowest, 1d) [1] | also measured
CCCCCCCCO[Si](OCCCCCCCC)(OCCCCCCCC)O[C@H]1C[C@H]2OC[C@@]2(OC(C)=O)[C@H]2[C@H](OC(=O)c3ccccc3)[C@]3(O)C[C@H](OC(=O)[C@H](O)[C@@H](NC(=O)c4ccccc4)c4ccccc4)C(C)=C([C@@H](OC(C)=O)C(=O)[C@]12C)C3(C)C [Compound 3b, 7-O-(tri-n-octylorthosilyl)paclitaxel] | 55 ± 3^ | 540 nM | – | –
CCO[Si](OCC)(OCC)O[C@H]1C[C@H]2OC[C@@]2(OC(C)=O)[C@H]2[C@H](OC(=O)c3ccccc3)[C@]3(O)C[C@H](OC(=O)[C@H](O[Si](OCC)(OCC)OCC)[C@@H](NC(=O)c4ccccc4)c4ccccc4)C(C)=C([C@@H](OC(C)=O)C(=O)[C@]12C)C3(C)C [Compound 2a, 2′,7-Di-O-(triethylorthosilyl)paclitaxel] | 250 ± 10^a | 74.4 nM | 1800 ± 100 | anticancer efficacy (cell viability) compared with paclitaxel [2]: anticancer efficacy similar to the parent compound
CCCCCCCCO[Si](OCCCCCCCC)(OCCCCCCCC)OC(C(=O)OC1CC2(O)C(OC(=O)c3ccccc3)C3C4(OC(C)=O)COC4CC(O[Si](OCCCCCCCC)(OCCCCCCCC)OCCCCCCCC)C3(C)C(=O)C(OC(C)=O)C(=C1C)C2(C)C)C(NC(=O)c1ccccc1)c1ccccc1 (centres unmarked) [Compound 2b, 2′,7-Di-O-(tri-n-octylorthosilyl)paclitaxel] | 41 ± 3^b | – | 460 ± 10 | –
CCO[Si](OCC)(OCC)O[C@H]1C[C@H]2OC[C@@]2(OC(C)=O)[C@H]2[C@H](OC(=O)c3ccccc3)[C@]3(O)C[C@H](OC(=O)[C@H](O)[C@@H](NC(=O)c4ccccc4)c4ccccc4)C(C)=C([C@@H](OC(C)=O)C(=O)[C@]12C)C3(C)C [Compound 3a, 7-O-(triethylorthosilyl)paclitaxel] | 270 ± 10^ | 21.4 nM | – | –
CCO[Si](O[C@@H](C(=O)O[C@H]1C[C@@]2(O)[C@@H](OC(=O)c3ccccc3)[C@@H]3[C@]4(OC(C)=O)CO[C@@H]4C[C@H](O)[C@@]3(C)C(=O)[C@H](OC(C)=O)C(=C1C)C2(C)C)[C@@H](NC(=O)c1ccccc1)c1ccccc1)(OC(C)(C)C)OC(C)(C)C [Compound 1d, 2′-O-(di-t-butylethylorthosilyl)paclitaxel] | – | 8140 nM | 1.0 ± 0.1 | –
CCCCCCCCO[Si](OCCCCCCCC)(OCCCCCCCC)OC(C(=O)OC1CC2(O)C(OC(=O)c3ccccc3)C3C4(OC(C)=O)COC4CC(O)C3(C)C(=O)C(OC(C)=O)C(=C1C)C2(C)C)C(NC(=O)c1ccccc1)c1ccccc1 (centres unmarked) [Compound 1b, 2-O-(tri-n-octylorthosilyl)paclitaxel] | – | – | 710 ± 30 | IC50 (MDA-MB-231 cells; MDA-MB-231 cells, cell viability measured after 48 h, MTT, read-out: IC50): 35.6 nM
CCO[Si](OCC)(OCC)O[C@@H](C(=O)O[C@H]1C[C@@]2(O)[C@@H](OC(=O)c3ccccc3)[C@@H]3[C@]4(OC(C)=O)CO[C@@H]4C[C@H](O)[C@@]3(C)C(=O)[C@H](OC(C)=O)C(=C1C)C2(C)C)[C@@H](NC(=O)c1ccccc1)c1ccccc1 [Compound 1a, 2′-O-(triethylorthosilyl)paclitaxel] | – | 23 nM | 2200 ± 600 | difference of krel values between the extremes 1a and 1d ([1]; 1a versus 1d): > 2000 ×; krel of 1a relative to 1b ([1]; hydrolysis rates of 1a and 1b called similar): ca. 3
CC(=O)O[C@H]1C(=O)[C@@]2(C)[C@H]([C@H](OC(=O)c3ccccc3)[C@]3(O)C[C@H](OC(=O)[C@H](O[Si](OC(C)C)(OC(C)C)OC(C)C)[C@@H](NC(=O)c4ccccc4)c4ccccc4)C(C)=C1C3(C)C)[C@]1(OC(C)=O)CO[C@@H]1C[C@@H]2O [Compound 1c, 2′-O-(tri-i-propylorthosilyl)paclitaxel] | – | 24.5 nM | 69 ± 4 | –
CC(=O)O[C@H]1C(=O)[C@@]2(C)[C@H]([C@H](OC(=O)c3ccccc3)[C@]3(O)C[C@H](OC(=O)[C@H](O)[C@@H](NC(=O)c4ccccc4)c4ccccc4)C(C)=C1C3(C)C)[C@]1(OC(C)=O)CO[C@@H]1C[C@@H]2O [PTX, paclitaxel] | – | – | – | tumor volume (Orthotopic 4T1 tumors; Day 13, single dose, tumors about 100 mm^3 at injection): 1450±65 mm^3; reaction at the site of injection (Orthotopic 4T1 tumors; single injection, BALB/c mice): severe tissue irritation and necrosis at the site of injection; IC50 (MDA-MB-231 cells; Homo sapiens, MDA-MB-231 cells, cell viability measured after 48 h, MTT, read-out: IC50): 23.6 nM

Reference: US9375484B2, “Taxane silicate prodrugs and nanoparticles” (REGENTS OF THE UNIVERSITY OF MINNESOTA, priority 2011, dated 2016)
